Data set [1] concerns urethra relaxation response. The data set is described as follows: Simultaneous measurement model for rat bladder contraction/urethra relaxation responses. Format: in vivo. The following applies: female SD rat, increase relative to the solvent administration group, read-out: Ratio with increased urethra relaxation time during voiding (vs vehicle) (%). Here is the method: Simultaneous measurement of the bladder contraction and urethra relaxation responses using a rat was carried out with a partial modification of a method in Wibberley et al. (Wibberley, A., et al., Br. J. Pharmacol., 136: pp. 399-414 (2002)). That is, a female Sprague-Dawley (SD) rat (Charles River Laboratories Japan, Inc.) was anesthetized with urethane, and the bladder was exposed by a midline incision in the lower abdomen. A double lumen cannula (a cannula having a dual structure by PE190 and PE50) from the bladder apex was inserted into the bladder, and the bladder apex and the cannula were fixed by sutures at a point where the tip reached the proximal urethra. While infusing physiological saline into the urethra through the outer cannula, the urethral inner pressure was measured by a pressure transducer through the inner cannula with a saline solution infused into the urethra through the outer cannula. On the other hand, a single cannula (PESO) was inserted into the bladder from the bladder apex and placed therein. The inner pressure of the bladder was measured through this cannula. After a postoperative stabilization period had passed, physiological saline was infused into the bladder through the cannula of the bladder apex to cause a bladder contraction reaction, and thus cause a urethra relaxation response accompanying the bladder contraction reflex. The test substance was administered intravenously or intraduodenally.

Data set [2] addresses PDE9 (Homo sapiens (Human), UniProt O76083). Put plainly: PDE9-inhibiting activity (SPA enzyme assay). The following applies: IC50 values; cGMP 1 μM substrate, 30° C.; read-out: PDE9 inhibition. Format: biochemical.

By melting point is commonly meant the temperature, or range, at which the solid turns liquid.

PDE9, sequence (O76083 whole entry): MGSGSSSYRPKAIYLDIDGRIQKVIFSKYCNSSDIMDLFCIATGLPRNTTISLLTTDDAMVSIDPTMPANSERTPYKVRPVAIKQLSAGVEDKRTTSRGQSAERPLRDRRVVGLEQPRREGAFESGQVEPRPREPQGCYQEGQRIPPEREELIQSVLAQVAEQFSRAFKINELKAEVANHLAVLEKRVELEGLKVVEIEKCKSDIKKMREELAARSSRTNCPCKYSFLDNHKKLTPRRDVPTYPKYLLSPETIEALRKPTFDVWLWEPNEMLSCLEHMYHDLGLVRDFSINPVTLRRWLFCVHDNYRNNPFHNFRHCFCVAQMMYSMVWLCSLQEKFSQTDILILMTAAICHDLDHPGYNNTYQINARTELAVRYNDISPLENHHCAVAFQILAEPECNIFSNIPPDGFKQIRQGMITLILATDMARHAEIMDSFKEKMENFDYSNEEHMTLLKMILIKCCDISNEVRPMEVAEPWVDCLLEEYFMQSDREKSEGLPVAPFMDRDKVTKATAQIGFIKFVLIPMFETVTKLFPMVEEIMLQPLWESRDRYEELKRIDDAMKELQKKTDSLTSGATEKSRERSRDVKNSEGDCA

Take `Cc1cc2[nH]c(=O)c3cnn(C4CCOCC4)c3c2cc1C(=O)N1CCC(OCC2CC2)CC1` [Example 41]: the melting point was 206 to 208 °C. Moreover, the response vs control in vivo at 1 mg/kg in data set [1] was determined as 159%. In addition, the IC50 in data set [2] came to 5.7 nM.

As for `CCCOC1CCN(C(=O)c2cc3c(cc2C)[nH]c(=O)c2cnn(C4CCOCC4)c23)CC1` [Example 53], the melting point lay within 216 to 218 °C. Further, the response vs control in vivo at 1 mg/kg in data set [1] came to 145%. Also, in data set [2], the IC50 came out at 3.9 nM.

`COCCCCN1CCN(C(=O)c2cc3c(cc2C)[nH]c(=O)c2cnn(C4CCC4)c23)CC1` [Example 79] had a melting point of 161 to 163 °C. In addition, in data set [1], the response vs control in vivo at 1 mg/kg stood at 139%. The IC50 in data set [2] stood at 23 nM.

For the compound `COCCCCN1CCN(C(=O)c2cc3c(cc2C)[nH]c(=O)c2cnn(C4CCOCC4)c23)CC1.Cl` [Example 84], the melting point is 240 to 242 °C. For the same compound, the response vs control in vivo at 1 mg/kg in data set [1] came to 154%. Moreover, the IC50 in data set [2] is 9.3 nM.

`Cc1cc2[nH]c(=O)c3cnn(C4CCOCC4)c3c2cc1C(=O)N1CCC(OC[C@H](C)F)CC1` [Example 95]: the melting point fell in the range of 209 to 210 °C. In addition, the response vs control in vivo at 1 mg/kg in data set [1] came to 166%. Besides, in data set [2], the IC50 is 14 nM.

Take `Cc1cc2[nH]c(=O)c3cnn(C4CCOCC4)c3c2cc1C(=O)N1CCN(CCC(F)(F)F)CC1.Cl` [Example 128]: the melting point lay within 174 to 176 °C. For the same compound, the response vs control in vivo at 1 mg/kg in data set [1] stood at 136%. The IC50 in data set [2] came to 5.2 nM.

These data come from patent US8822448B2, “Pyrazoloquinoline compound” (Astellas Pharma Inc., priority 2010, dated 2014).
